# Reference: article PMC9607599, “Dual Targeting Ligands—Histamine H3 Receptor Ligands with Monoamine Oxidase B Inhibitory Activity—In Vitro and In Vivo Evaluation” (Pharmaceutics, 2022)
# Values joined by “and” are separate entries in the source; they are usually repeats but may differ in a detail not shown here. Equal entries are not always repeated.
# How the values were obtained:
# [1] = molecular target: T1, MAO A in rat cerebral cortex (Rattus norvegicus, UniProt P21396); experiment: MAO A activity in cerebral cortex homogenates after sub-chronic administration (radioassay); format: in vivo; settings: 3 mg/kg/day s.c. for 6 days
# T1 construct: from tissue; host or cells: cerebral cortex homogenate of male Wistar rats
# T1 sequence (P21396 1-526): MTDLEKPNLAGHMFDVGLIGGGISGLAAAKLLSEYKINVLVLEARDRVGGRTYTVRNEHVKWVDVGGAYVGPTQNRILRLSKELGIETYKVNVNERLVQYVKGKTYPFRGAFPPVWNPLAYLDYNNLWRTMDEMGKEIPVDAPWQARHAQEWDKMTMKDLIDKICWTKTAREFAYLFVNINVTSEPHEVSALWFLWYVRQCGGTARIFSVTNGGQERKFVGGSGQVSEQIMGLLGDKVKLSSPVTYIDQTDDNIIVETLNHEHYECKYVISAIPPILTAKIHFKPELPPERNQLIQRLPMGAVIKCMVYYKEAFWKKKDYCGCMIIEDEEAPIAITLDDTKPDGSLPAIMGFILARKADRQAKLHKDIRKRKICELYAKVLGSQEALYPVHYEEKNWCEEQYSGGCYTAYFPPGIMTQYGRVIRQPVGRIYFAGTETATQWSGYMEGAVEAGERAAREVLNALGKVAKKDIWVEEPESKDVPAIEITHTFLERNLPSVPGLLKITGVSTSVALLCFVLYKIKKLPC
# Description: (§1) The compound 13 was given to intact Wistar rats to verify its impact on the metabolism of biogenic amines in the brain (cerebral amines and their metabolites concentrations as well as activities of metabolizing enzymes). […] Both drugs (3 mg/kg body mass, dissolved in 0.9% NaCl) were given subcutaneously for 6 consecutive days. Control rats were injected with 200 μL of 0.9% NaCl.
# (§2) Tissues were collected and properly prepared for subsequent biochemical analyzes. The brain was quickly removed from the skull and the selected structures (hypothalamus, striatum, cerebral cortex) were dissected according to the method by Glowinsky and Iversen, immediately frozen in liquid nitrogen and kept at −80 °C until assayed.
# (§3) MAO A and MAO B activities were estimated in cerebral homogenates with radioassays using 5-[2-^14C]-hydroxytryptamine binoxalate (final conc. 200 µM) and β-[ethyl-1-^14C]-phenylethylamine hydrochloride (final conc. 20 µM), as well as specific inhibitors—clorgyline and deprenyl (final conc. 10^−9 M), respectively.
# (§4) The enzyme activities are expressed as pmol/min/mg protein. Protein concentration was analyzed by Lowry’s method.
# [2] = MTT cell viability test on human astrocytes; format: cell-based; settings: human; 24 h; at 0.15 and 0.25 mg/mL; read-out: decline in cell viability in comparison to the control level
# Description: The studies were performed on a commercially-available astrocyte cell line isolated from human cerebral cortex (ScienCell Research Laboratories, San Diego, CA, USA; Cat no. 1800). The cells (passage 7–8) were seeded into a 96-well plate at an amount of 10,000 cells/well and kept in accordance with the ScienCell Research Laboratories’ protocol, i.e., in astrocyte medium supplemented with 2% fetal bovine serum, 10% astrocyte growth supplement and 1% penicillin/streptomycin solution, in an atmosphere with 5% CO2 at 37 °C. The cells were allowed to grow for 24 h and then treated with increasing concentrations of test compounds (0.01–0.25 mg/mL) for 24 and 72 h. Astrocytes in the medium on each plate (regardless of the factors tested) were used as a positive control.
# The viability of the astrocyte cell line was determined calorimetrically using 3-(4,5-dimethylthazol-2-yl)-2,5-diphenyltetrazolium bromide (MTT; Sigma-Aldrich Chemical Co. Ltd., Saint Louis, MO, USA) as described earlier. […] After the incubation time (24 or 72 h) with examined drugs, 50 μL MTT solution (1 mg/mL) was added to each well of the plate for another 4 h. The method is based on the reduction of a yellow tetrazolium salt (MTT) into purple formazan crystals by mitochondrial succinate-tetrazolium reductase system which is metabolically active in viable cells. At the end of the experiment, the cells were treated with 100 μL dimethyl sulphoxide, which enabled the release of the reaction product.
# The absorbance was measured at 570 nm using a BioTek EL×800 microplate reader (BioTek, Winooski, Vermont, USA) and results were expressed as a percentage of the absorbance measured in control cells. The obtained values were plotted against different concentrations of each compound to calculate the viability inhibition concentration at 50% (IC50) using GraphPad Prism 6.07 (GraphPad Software, Inc., San Diego, CA, USA). The experiment was repeated in quadruplicate.
# For the cytotoxicity assessment in the MTT assays, each test drug was used at 8 concentrations (range: 0.01–0.25 mg/mL).
# [3] = molecular target: T2, MAO B in rat cerebral cortex (Rattus norvegicus, UniProt P19643); experiment: MAO B activity in cerebral cortex homogenates after sub-chronic administration (radioassay); format: in vivo; settings: 3 mg/kg/day s.c. for 6 days
# T2 construct: from tissue; host or cells: cerebral cortex homogenate of male Wistar rats
# T2 sequence (P19643 1-520): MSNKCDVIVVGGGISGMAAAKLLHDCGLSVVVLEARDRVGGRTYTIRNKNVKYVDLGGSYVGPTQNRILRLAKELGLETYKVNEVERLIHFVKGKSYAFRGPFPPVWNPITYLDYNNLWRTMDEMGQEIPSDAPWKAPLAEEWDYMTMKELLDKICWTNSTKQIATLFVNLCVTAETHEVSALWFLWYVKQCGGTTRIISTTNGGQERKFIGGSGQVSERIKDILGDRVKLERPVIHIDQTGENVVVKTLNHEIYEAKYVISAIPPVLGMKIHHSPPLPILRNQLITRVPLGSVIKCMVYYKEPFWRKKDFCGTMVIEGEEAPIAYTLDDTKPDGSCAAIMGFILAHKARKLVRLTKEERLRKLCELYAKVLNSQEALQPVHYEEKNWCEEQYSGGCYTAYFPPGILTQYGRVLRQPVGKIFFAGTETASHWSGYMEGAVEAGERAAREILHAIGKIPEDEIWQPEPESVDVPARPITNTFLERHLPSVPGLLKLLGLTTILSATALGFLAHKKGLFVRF
# Description: as §1, §2, §3, §4
Structure (SMILES),"inhibition at 3 mg/kg ([1]; rat, sc, data not shown) [%]",viability at 24 h [2] [%],MAO B activity in cerebral cortex [3] [pmol/min/mg protein],decline in MAO B activity in rat cerebral cortex ([3]; vs control),"MAO A activity vs control, in words [1]","MAO B activity vs control, in words [3]"
"CC1CCCN1CCCOc1ccc(C(C)(C)C)cc1.O=C(O)C(=O)O (stereo not drawn) [Compound 13, 1-(3-(4-(tert-Butyl)phenoxy)propyl)-2-methylpyrrolidine hydrogen oxalate]",12,> 95,48.38 ± 12.02,91.7% and > 90%,,
"Clc1ccc(CCCOCCCN2CCCCC2)cc1 [Pitolisant, 3-(4-chlorophenyl)propyl 3-piperidinopropyl ether, reference compound]",,,,,close to that recorded in control animals,close to that recorded in control animals
